Results on 42 substances are retold here after US11214803B2, “Modulators of YAP1 expression” (Ionis Pharmaceuticals, Inc., priority 2019, dated 2022).

The series has as its system Yap1 mRNA. Kind of series: Antisense inhibition of human Yap1 in A-431 cells by cEt gapmers, single dose (Example 2, RTS4814). It is filed as cell-based. The gist of the method: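 Read-out is Yap1 mRNA as percent of untreated cells, by real-time RT-PCR (probe set RTS4814) normalized to total RNA via RIBOGREEN. Cells were A-431 dosed with 2,000 nM gapmer without transfection for approximately 48 hours.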

[1] abbreviates: Yap1 mRNA as percent of untreated control, A-431 cells, 3-10-3 cEt gapmers targeting SEQ ID NO.: 1, and 2, Table 30.
Where [2] appears, read: Table 25, Yap1 mRNA as percent of untreated control, 3-10-3 cEt gapmers targeting SEQ ID NO.: 1, and 2.
Setting [3] is: Table 32, Yap1 mRNA, percent of untreated control, 3-10-3 cEt gapmers targeting SEQ ID NO.: 1, and 2.
Setting [4] is: Table 33, Yap1 mRNA, percent of untreated control, 3-10-3 cEt gapmers targeting SEQ ID NO.: 1, and 2.
[5] abbreviates: Table 19, A-431 cells, 5,000 cells per well, free uptake, 2,000 nM modified oligonucleotide, approx. 48 hours, RTS4814, normalized to RIBOGREEN, Yap1 mRNA as percent of untreated control.
Setting [6] is: Table 18, A-431 cells, 5,000 cells per well, free uptake, 2,000 nM modified oligonucleotide, approx. 48 hours, RTS4814, normalized to RIBOGREEN, Yap1 mRNA as percent of untreated control.
[7] abbreviates: Yap1 mRNA as percent of untreated control, A-431 cells, 3-10-3 cEt gapmers targeting SEQ ID NO.: 1, and 2, Table 31.
The mark [8] stands for this setting: Table 21, Yap1 mRNA, percent of untreated control, 3-10-3 cEt gapmers targeting SEQ ID NO.: 1 and 2.
Setting [9] is: Table 23, Yap1 mRNA as percent of untreated control, 3-10-3 cEt gapmers, single dose.
[10] abbreviates: Table 5, A-431 cells, 5,000 cells per well, free uptake, 2,000 nM modified oligonucleotide, approx. 48 hours, RTS4814, normalized to RIBOGREEN, Yap1 mRNA relative to untreated control cells.
Setting [11] is: Table 24, Yap1 mRNA as percent of untreated control, 3-10-3 cEt gapmers targeting SEQ ID NO.: 1, and 2.

Strand notation (5' to 3'): a small letter for the sugar, then the base; units joined by * are phosphorothioate-linked, units joined directly phosphodiester-linked; [ ] holds rarer units or linkages, { } end groups; capitals alone tell only the bases. k = constrained ethyl (cEt); [5mC] = 5-methylcytosine; d = 2'-deoxy (DNA)

On to “1075504 (k[5mC]*kT*kT*dA*dA*dA*dT*dG*dA*dG*dA*dG*dA*kA*k[5mC]*k[5mC]; antisense) [compound 1075504]”, for which, under setting [1], the “YAP1 (% UTC)” value came out at 71 % UTC.
Turning to “1076555 (antisense kT*kG*kG*dG*dA*dA*dT*dA*dG*dT*dA*d[5mC]*dA*k[5mC]*kA*kG) [Compound 1076555]”, the “YAP1 (% UTC)” value under setting [2] was found to be 19 % UTC.
Consider “1075376 (antisense k[5mC]*k[5mC]*kT*dA*dA*dA*dT*dA*dT*d[5mC]*dA*dA*d[5mC]*kT*k[5mC]*k[5mC]) [compound 1075376]”, for which the “YAP1 (% UTC)” value under setting [1] was 72 % UTC.
Still for that read-out and setting: under “1074352 (antisense k[5mC]*kA*kT*dG*d[5mC]*dT*dT*dA*dG*dT*d[5mC]*d[5mC]*dA*k[5mC]*kT*kG) [compound 1074352]” stands 69 % UTC.
“1074994 (antisense kA*kA*kA*d[5mC]*dT*dA*dA*dA*dT*dG*dG*dA*d[5mC]*k[5mC]*kG*kG) [compound 1074994]”: under setting [3], the “YAP1 (% UTC)” value is 94 % UTC.
Consider “1076331 (k[5mC]*kA*kT*dT*dA*dT*dT*d[5mC]*dA*dG*dT*dA*dG*kT*kT*kG; antisense) [Compound 1076331]”, for which, under setting [2], the “YAP1 (% UTC)” value worked out at 71 % UTC.
As for “1074923 (antisense kG*kG*kG*d[5mC]*dG*dG*dT*dA*dA*d[5mC]*dT*d[5mC]*dT*kT*k[5mC]*kT) [Compound 1074923]”, the “YAP1 (% UTC)” value under setting [2] came out at 73 % UTC.
Turning to “1075219 (k[5mC]*k[5mC]*kT*dT*dA*dA*d[5mC]*dA*d[5mC]*dT*dG*dG*dT*kA*kA*kG; antisense) [compound 1075219]”, the “YAP1 (% UTC)” value under setting [4] amounted to 117 % UTC.
Consider “1074347 (antisense kG*kT*kT*dA*dA*dG*dG*dA*dA*dA*dG*dG*dA*kT*k[5mC]*kT) [Compound 1074347]”, for which the “YAP1 (% UTC)” value under setting [2] came out at 34 % UTC.
For “1074213 (antisense kG*kA*kG*dT*d[5mC]*dG*dG*dG*d[5mC]*dA*dG*d[5mC]*dT*kT*k[5mC]*k[5mC]) [Compound 1074213]”, the “YAP1 (% UTC)” value under setting [5] is 55 % UTC.
For “1076210 (kA*kT*kT*dT*dA*dT*dA*dT*dG*d[5mC]*dT*d[5mC]*d[5mC]*k[5mC]*kT*k[5mC]; antisense) [compound 1076210]”, the “YAP1 (% UTC)” value under setting [3] was 20 % UTC.
For “1076452 (kG*kG*kA*d[5mC]*dT*dA*dT*dA*dG*d[5mC]*d[5mC]*d[5mC]*dT*kT*kA*kA; antisense) [Compound 1076452]”, under setting [6], the “YAP1 (% UTC)” value amounted to 16 % UTC.
Consider “1075761 (kG*kG*kA*dG*dA*dA*dA*dA*dA*d[5mC]*dT*dA*d[5mC]*kG*kG*kA; antisense) [compound 1075761]”, for which the “YAP1 (% UTC)” value under setting [7] came to 13 % UTC.
On to “1075499 (kG*k[5mC]*kT*dA*dA*dA*dA*dA*dA*dT*dG*dA*dG*kT*kA*kG; antisense) [Compound 1075499]”, for which, under setting [2], the “YAP1 (% UTC)” value was 99 % UTC.
On to “1074567 (antisense kA*kA*k[5mC]*d[5mC]*dT*dA*d[5mC]*dT*d[5mC]*dA*d[5mC]*dT*dG*kA*kA*kT) [Compound 1074567]”, for which, under setting [8], the “YAP1 (% UTC)” value was 38 % UTC.
Take “1074921 (antisense k[5mC]*kA*k[5mC]*dT*d[5mC]*dA*dA*dG*dT*dT*dA*d[5mC]*dA*kT*k[5mC]*k[5mC]) [Compound 1074921]”: the “YAP1 (% UTC)” value under setting [9] was determined as 65 % UTC.
As for “1074820 (kA*kA*kG*dT*dG*dT*dT*dA*dA*dG*d[5mC]*dA*d[5mC]*kT*kG*kA; antisense) [Compound 1074820]”, under setting [6], the “YAP1 (% UTC)” value was determined as 85 % UTC.
For the substance “1075657 (kT*kA*kA*dA*dA*dA*dA*d[5mC]*dG*dG*dT*dT*dT*kT*kT*k[5mC]; antisense) [Compound 1075657]”, the “YAP1 (% UTC)” value under setting [9] is given as 84 % UTC.
With “1076167 (kA*kA*kA*dT*dT*dT*dA*d[5mC]*dA*d[5mC]*d[5mC]*dA*d[5mC]*k[5mC]*kG*k[5mC]; antisense) [Compound 1076167]”, the “YAP1 (% UTC)” value under setting [8] was determined as 33 % UTC.
Take “1074707 (antisense kT*kT*kT*dA*dA*dT*dG*dG*d[5mC]*dA*dG*d[5mC]*dA*k[5mC]*kG*kG) [compound 1074707]”: under setting [4], the “YAP1 (% UTC)” value was 36 % UTC.
As to “1074674 (antisense kT*kA*kT*dA*dG*dG*d[5mC]*dA*d[5mC]*dT*d[5mC]*d[5mC]*dT*kT*k[5mC]*k[5mC]) [compound 1074674]”, under setting [3], the “YAP1 (% UTC)” value came out at 22 % UTC.
“716488 (k[5mC]*kA*kT*dT*dA*dT*dT*dA*d[5mC]*dT*d[5mC]*d[5mC]*dT*kG*kT*kA; antisense) [Compound 716488]”: the “YAP1 (% UTC)” value under setting [10] came to 67 % UTC.
As to “716503 (kT*kT*kA*dT*dT*dA*dT*dG*dA*dG*dT*dG*dA*kT*k[5mC]*kA; antisense) [Compound 716503]”, the “YAP1 (% UTC)” value under setting [10] stood at 33 % UTC.
Take “1074918 (antisense kT*k[5mC]*kA*dA*dG*dT*dT*dA*d[5mC]*dA*dT*d[5mC]*d[5mC]*k[5mC]*kG*kA) [Compound 1074918]”: where the note is “Table 20, Yap1 mRNA, percent of untreated control, 3-10-3 cEt gapmers targeting SEQ ID NO.: 1 and 2”, the “YAP1 (% UTC)” value turned out to be 60 % UTC.
For “716465 (kG*k[5mC]*kT*d[5mC]*dT*dT*dT*d[5mC]*dT*dA*dG*dA*dA*k[5mC]*kA*k[5mC]; antisense) [Compound 716465]”, the “YAP1 (% UTC)” value (Table 6, A-431 cells, 5,000 cells per well, free uptake, 2,000 nM modified oligonucleotide, approx. 48 hours, RTS4814, normalized to RIBOGREEN, Yap1 mRNA relative to untreated control cells) is recorded as 82 % UTC.
Turning to “1074116 (antisense kG*kA*kG*dA*dA*d[5mC]*dT*dT*dT*dT*dT*d[5mC]*d[5mC]*k[5mC]*kT*k[5mC]) [Compound 1074116]”, under setting [6], the “YAP1 (% UTC)” value is listed as 112 % UTC.
In the case of “1075113 (antisense kT*kA*kT*dA*dA*dA*dT*dA*d[5mC]*d[5mC]*dA*dG*dG*kT*kA*k[5mC]) [Compound 1075113]”, the “YAP1 (% UTC)” value under setting [9] came to 67 % UTC.
Take “1075620 (kG*kA*kT*dG*dA*dA*dG*dA*dA*dT*d[5mC]*dT*dA*kT*kA*kG; antisense) [Compound 1075620]”: under setting [6], the “YAP1 (% UTC)” value amounted to 88 % UTC.
On to “1076528 (kT*kT*kA*dT*dA*dA*dT*dG*dG*dG*dA*dG*dG*kA*kT*kT; antisense) [compound 1076528]”, for which, under setting [1], the “YAP1 (% UTC)” value was found to be 86 % UTC.
“1074564 (antisense k[5mC]*kT*kG*dA*dA*dT*dT*d[5mC]*d[5mC]*dA*dA*dT*d[5mC]*kG*kA*kG) [Compound 1074564]”: under setting [6], the “YAP1 (% UTC)” value is 4 % UTC.
For the substance “716499 (kT*kT*kT*dT*dG*d[5mC]*d[5mC]*d[5mC]*dT*d[5mC]*d[5mC]*dT*d[5mC]*k[5mC]*kA*kA; antisense) [Compound 716499]”, where the note is “A-431 cells, 5,000 cells per well, free uptake, 2,000 nM modified oligonucleotide, approx. 48 hours, RTS4814, normalized to RIBOGREEN, Table 4, asterisk (*) = targets amplicon region of primer probe set”, the “YAP1 (% UTC)” value is listed as 102 % UTC.
Turning to “1074795 (k[5mC]*k[5mC]*kA*dA*dA*dT*d[5mC]*dA*dA*dT*dG*dT*dG*k[5mC]*kT*k[5mC]; antisense) [Compound 1074795]”, the “YAP1 (% UTC)” value under setting [2] is recorded as 4 % UTC.
Regarding “1074341 (antisense kA*kT*k[5mC]*d[5mC]*d[5mC]*dG*dG*dG*dA*dG*dA*dA*dG*kA*k[5mC]*kA) [Compound 1074341]”, the “YAP1 (% UTC)” value under setting [5] worked out at 106 % UTC.
Consider “1074225 (antisense k[5mC]*k[5mC]*kA*dG*dA*dG*dA*d[5mC]*dT*dA*d[5mC]*dT*d[5mC]*k[5mC]*kA*kG) [compound 1074225]”, for which the “YAP1 (% UTC)” value under setting [7] amounted to 11 % UTC.
Turning to “1075786 (k[5mC]*kT*kA*dT*dA*dT*dT*dG*dA*dT*dT*d[5mC]*d[5mC]*kA*kG*kA; antisense) [Compound 1075786]”, under setting [11], the “YAP1 (% UTC)” value was found to be 19 % UTC.
Take “1076490 (antisense k[5mC]*k[5mC]*kA*dA*dA*dA*dT*dA*dG*dG*dT*dG*dA*kG*kT*k[5mC]) [Compound 1076490]”: under setting [11], the “YAP1 (% UTC)” value is on record as 2 % UTC.
On the same count and under the same terms, under “1074506 (kT*kA*kA*dT*d[5mC]*dG*dA*dG*dA*dT*dT*dT*dA*kA*kA*kT; antisense) [Compound 1074506]” stands 107 % UTC.
Take “1074501 (kA*k[5mC]*kT*dA*d[5mC]*dA*dA*dT*dA*dA*d[5mC]*d[5mC]*dA*kT*k[5mC]*k[5mC]; antisense) [Compound 1074501]”: under setting [5], the “YAP1 (% UTC)” value is on record as 9 % UTC.
As to “716578 (kA*kA*k[5mC]*dT*dT*dT*d[5mC]*dA*d[5mC]*dA*dT*dA*dA*kA*k[5mC]*kT; antisense) [Compound 716578]”, the “YAP1 (% UTC)” value under setting [10] is given as 102 % UTC.
Regarding “1075208 (antisense kA*k[5mC]*kT*dG*dA*dA*d[5mC]*dA*d[5mC]*dA*dG*dG*d[5mC]*kT*kA*k[5mC]) [Compound 1075208]”, the “YAP1 (% UTC)” value (Table 22, Yap1 mRNA as percent of untreated control, 3-10-3 cEt gapmers, single dose) is on record as 24 % UTC.
For “1074533 (antisense kT*kA*kG*dA*dA*d[5mC]*dA*d[5mC]*dT*dA*dA*dA*d[5mC]*kT*kA*k[5mC]) [Compound 1074533]”, the “YAP1 (% UTC)” value under setting [5] is 80 % UTC.
As to “716512 (antisense kA*k[5mC]*kT*d[5mC]*d[5mC]*dT*dT*d[5mC]*d[5mC]*dA*dA*dG*dT*kA*kG*k[5mC]) [Compound 716512]”, under setting [10], the “YAP1 (% UTC)” value is listed as 99 % UTC.
